Holding throughout (format): in vivo
Assay [1] has as its system Lolium perenne (LOLPE). As to the kind of experiment: Example A glasshouse herbicide test, post-emergence, LOLPE. The settings on record: Rate 250 g/ha, sprayed after 8 days cultivation, evaluated after 13 days; for pest or weed control at 250 g/ha: Lolium perenne, post-emergence, 312 h, read-out: Post-Emergence Activity LOLPE (100=total damage to plant; 0=no damage to plant). On the procedure:
(§1) Seeds of a variety of test species are sown in standard soil in pots. After cultivation for one day (pre-emergence) or after 8 days cultivation (post-emergence) under controlled conditions in a glasshouse (at 24/16° C., day/night; 14 hours light; 65% humidity), the plants are sprayed with an aqueous spray solution derived from the formulation of the technical active ingredient in acetone/water (50:50) solution containing 0.5% Tween 20 (polyoxyethelyene sorbitan monolaurate, CAS RN 9005-64-5).
(§2) The test plants are then grown in a glasshouse under controlled conditions in a glasshouse (at 24/16° C., day/night; 14 hours light; 65% humidity) and watered twice daily. After 13 days for pre and post-emergence, the test is evaluated (100=total damage to plant; 0=no damage to plant).
(§3) Lolium perenne (LOLPE), Alopecurus myosuroides (ALOMY), Echinochloa crus-galli (ECHCG), Avena fatua (AVEFA)

Assay [2] has as its system Alopecurus myosuroides (ALOMY). In words: Example A glasshouse herbicide test, post-emergence, ALOMY. The settings on record: Rate 250 g/ha, sprayed after 8 days cultivation, evaluated after 13 days; for pest or weed control at 250 g/ha: Alopecurus myosuroides, post-emergence, 312 h, read-out: Post-Emergence Activity ALOMY (100=total damage to plant; 0=no damage to plant). On the procedure:
as §1, §2, §3

Assay [3] deals with Echinochloa crus-galli (ECHCG). As to the kind of experiment: Example A glasshouse herbicide test, post-emergence, ECHCG. The conditions noted are these: Rate 250 g/ha, sprayed after 8 days cultivation, evaluated after 13 days; for pest or weed control at 250 g/ha: Echinochloa crus-galli, post-emergence, 312 h, read-out: Post-Emergence Activity ECHCG (100=total damage to plant; 0=no damage to plant). On the procedure: as §1, §2, §3

In assay [4] the test system is Avena fatua (AVEFA). As to the kind of experiment: Example A glasshouse herbicide test, post-emergence, AVEFA. The conditions noted are these: Rate 250 g/ha, sprayed after 8 days cultivation, evaluated after 13 days; for pest or weed control at 250 g/ha: Avena fatua, post-emergence, 312 h, read-out: Post-Emergence Activity AVEFA (100=total damage to plant; 0=no damage to plant). On the procedure:
as §1, §2, §3

Assay [5] deals with Lolium perenne (LOLPE). In words: Example A glasshouse herbicide test, pre-emergence, LOLPE. The conditions noted are these: Rate 250 g/ha, sprayed after cultivation for one day, evaluated after 13 days; for pest or weed control at 250 g/ha: Lolium perenne, pre-emergence, 312 h, read-out: Pre-Emergence Activity LOLPE (100=total damage to plant; 0=no damage to plant). As for the experimental part:
as §1, §2, §3

The test system of assay [6] is Alopecurus myosuroides (ALOMY). As to the kind of experiment: Example A glasshouse herbicide test, pre-emergence, ALOMY. The settings on record: Rate 250 g/ha, sprayed after cultivation for one day, evaluated after 13 days; for pest or weed control at 250 g/ha: Alopecurus myosuroides, pre-emergence, 312 h, read-out: Pre-Emergence Activity ALOMY (100=total damage to plant; 0=no damage to plant). On the procedure:
as §1, §2, §3

Assay [7] deals with Echinochloa crus-galli (ECHCG). As to the kind of experiment: Example A glasshouse herbicide test, pre-emergence, ECHCG. The conditions noted are these: Rate 250 g/ha, sprayed after cultivation for one day, evaluated after 13 days; for pest or weed control at 250 g/ha: Echinochloa crus-galli, pre-emergence, 312 h, read-out: Pre-Emergence Activity ECHCG (100=total damage to plant; 0=no damage to plant). On the procedure:
as §1, §2, §3

In assay [8] the test system is Avena fatua (AVEFA). In words: Example A glasshouse herbicide test, pre-emergence, AVEFA. The conditions noted are these: Rate 250 g/ha, sprayed after cultivation for one day, evaluated after 13 days; for pest or weed control at 250 g/ha: Avena fatua, pre-emergence, 312 h, read-out: Pre-Emergence Activity AVEFA (100=total damage to plant; 0=no damage to plant). On the procedure:
as §1, §2, §3

As for `Cc1cc(C)c(C2=C(OC(=O)C(C)(C)C)CC(Cc3ccccc3C)C2=O)c(C)c1` (stereo not drawn) [Compound B10], the pest or weed control at 250 g/ha in the assay on Lolium perenne (LOLPE) [1] is 90%; in assay [2], 50%; in assay [3] it was 40%; with Avena fatua (AVEFA) [4], 30%; in the assay with Lolium perenne (LOLPE) [5], 100%; in assay [6] it was 30%. Also, the pest or weed control at 250 g/ha in assay [7] worked out at 30%; in the assay on Avena fatua (AVEFA) [8], 20%.
For the compound `Cc1cc(C)c(C2=C(OC(=O)C(C)(C)C)CC(Cc3ccc(F)cc3)C2=O)c(C)c1` (stereo not drawn) [Compound B8], the pest or weed control at 250 g/ha with Lolium perenne (LOLPE) [1] was found to be 70%; in assay [2], 40%; in assay [3], 40%; with Avena fatua (AVEFA) [4] it was 20%; in the assay with Lolium perenne (LOLPE) [5] it was 100%; in assay [6], 70%. Also, the pest or weed control at 250 g/ha in assay [7] is 50%; with Avena fatua (AVEFA) [8] it was 30%.
In the case of `Cc1cc(C)c(C2=C(OC(=O)C(C)(C)C)CC(Cc3ccc(S(C)(=O)=O)cc3)C2=O)c(C)c1` (stereo not drawn) [Compound B18], the pest or weed control at 250 g/ha with Lolium perenne (LOLPE) [1] came to 50%; in assay [2], 70%; in assay [3], 80%; in the assay on Avena fatua (AVEFA) [4] it was 80%; in the assay on Lolium perenne (LOLPE) [5], 70%; in assay [6], 60%. In addition, the figures for the pest or weed control at 250 g/ha (in assay [7]; in the assay on Avena fatua (AVEFA) [8]) were 80% and 60%, respectively.
For “2,2-dimethyl-propionic acid 4-(4-fluoro-benzyl)-3-oxo-2-(2,4,6-trimethyl-phenyl)-cyclopent-1-enyl ester [Compound B9]”, the “Post-Emergence Activity LOLPE (100=total damage to plant; 0=no damage to plant)” value in the assay on Lolium perenne (LOLPE) [1] was 80. The “Post-Emergence Activity ALOMY (100=total damage to plant; 0=no damage to plant)” value in assay [2] was determined as 70. The “Post-Emergence Activity ECHCG (100=total damage to plant; 0=no damage to plant)” value in assay [3] amounted to 80. In addition, the “Post-Emergence Activity AVEFA (100=total damage to plant; 0=no damage to plant)” value with Avena fatua (AVEFA) [4] was 20. For the same compound, the “Pre-Emergence Activity LOLPE (100=total damage to plant; 0=no damage to plant)” value with Lolium perenne (LOLPE) [5] came to 100. Moreover, in assay [6], the “Pre-Emergence Activity ALOMY (100=total damage to plant; 0=no damage to plant)” value amounted to 90. Further, the “Pre-Emergence Activity ECHCG (100=total damage to plant; 0=no damage to plant)” value in assay [7] amounted to 70. Further, the “Pre-Emergence Activity AVEFA (100=total damage to plant; 0=no damage to plant)” value with Avena fatua (AVEFA) [8] worked out at 40.
Consider `COc1ccc(CC2CC(OC(=O)C(C)(C)C)=C(c3c(C)cc(C)cc3C)C2=O)cc1` (stereo not drawn) [Compound B19], for which the pest or weed control at 250 g/ha with Lolium perenne (LOLPE) [1] stood at 80%; in assay [2] it was 80%; in assay [3], 30%; with Avena fatua (AVEFA) [4], 60%; with Lolium perenne (LOLPE) [5], 80%; in assay [6], 40%. Moreover, the pest or weed control at 250 g/ha in assay [7] was 10%; in the assay on Avena fatua (AVEFA) [8] it was 30%.
For the compound `COC1CCC(/C=C2\CC(=O)C(c3c(C)cc(C)cc3C)C2=O)CC1` (stereo not drawn) [Compound A39, 4-[1-(4-Methoxy-cyclohexyl)-meth-(E)-ylidene]-2-(2,4,6-trimethyl-phenyl)-cyclopentane-1,3-dione], the pest or weed control at 250 g/ha in the assay on Lolium perenne (LOLPE) [1] came to 50%; in assay [2], 90%; in assay [3], 100%; in the assay with Avena fatua (AVEFA) [4], 90%; with Lolium perenne (LOLPE) [5], 50%; in assay [6] it was 60%. In addition, the values for the pest or weed control at 250 g/ha (in assay [7]; in the assay on Avena fatua (AVEFA) [8]) were 100% and 80%, respectively.
Turning to `Cc1cc(C)c(C2C(=O)CC(CC3CCCCC3C)C2=O)c(C)c1` (stereo not drawn) [Compound A29], the pest or weed control at 250 g/ha stood at 90% in the assay with Lolium perenne (LOLPE) [1]; 0% in assay [2]; 50% in assay [3]; 0% with Avena fatua (AVEFA) [4]; 90% in the assay on Lolium perenne (LOLPE) [5]; 50% in assay [6]. For the same compound, the pest or weed control at 250 g/ha in assay [7] was found to be 90%; in the assay with Avena fatua (AVEFA) [8], 50%.
As to `Cc1cc(C)c(C2=C(OC(=O)C(C)(C)C)CC(Cc3cc(F)cc(F)c3)C2=O)c(C)c1` (stereo not drawn) [Compound B15], the pest or weed control at 250 g/ha is 70% in the assay with Lolium perenne (LOLPE) [1]; 10% in assay [2]; 50% in assay [3]; 10% in the assay with Avena fatua (AVEFA) [4]; 70% in the assay on Lolium perenne (LOLPE) [5]; 20% in assay [6]. The pest or weed control at 250 g/ha came to 40% in assay [7] and 20% in the assay with Avena fatua (AVEFA) [8].
Consider `Cc1cccc(CC2CC(OC(=O)C(C)(C)C)=C(c3c(C)cc(C)cc3C)C2=O)c1` (stereo not drawn) [Compound B13], for which the pest or weed control at 250 g/ha stood at 80% in the assay with Lolium perenne (LOLPE) [1]; 60% in assay [2]; 60% in assay [3]; 30% in the assay with Avena fatua (AVEFA) [4]; 70% in the assay with Lolium perenne (LOLPE) [5]; 40% in assay [6]. Further, the pest or weed control at 250 g/ha in assay [7] was determined as 60%; with Avena fatua (AVEFA) [8] it was 20%.
As for `Cc1cc(C)c(C2=C(OC(=O)C(C)(C)C)CC(Cc3ccc(C#N)cc3)C2=O)c(C)c1` (stereo not drawn) [Compound B14], the pest or weed control at 250 g/ha in the assay on Lolium perenne (LOLPE) [1] turned out to be 60%; in assay [2], 70%; in assay [3], 70%; in the assay with Avena fatua (AVEFA) [4], 50%; with Lolium perenne (LOLPE) [5], 80%; in assay [6] it was 60%. The pest or weed control at 250 g/ha was found to be 50% in assay [7] and 10% in the assay on Avena fatua (AVEFA) [8].
Turning to `Cc1cc(C)c(C2=C(OC(=O)C(C)(C)C)CC(Cc3cccc(Oc4ccccc4)c3)C2=O)c(C)c1` (stereo not drawn) [Compound B7], the pest or weed control at 250 g/ha worked out at 20% in the assay with Lolium perenne (LOLPE) [1]; 20% in assay [2]; 20% in assay [3]; 0% with Avena fatua (AVEFA) [4]; 20% with Lolium perenne (LOLPE) [5]; 30% in assay [6]. Further, the pest or weed control at 250 g/ha (in assay [7]; in the assay with Avena fatua (AVEFA) [8]) was 0% each time.
Consider `Cc1cc(C)c(C2=C(OC(=O)C(C)(C)C)CC(Cc3ccccc3)C2=O)c(C)c1` (stereo not drawn) [Compound B12], for which the pest or weed control at 250 g/ha in the assay on Lolium perenne (LOLPE) [1] worked out at 90%; in assay [2], 60%; in assay [3], 50%; in the assay with Avena fatua (AVEFA) [4] it was 30%; in the assay on Lolium perenne (LOLPE) [5] it was 90%; in assay [6], 30%. The pest or weed control at 250 g/ha in assay [7] was determined as 40%; in the assay with Avena fatua (AVEFA) [8], 20%.
For the compound `CC(=O)OC1CCC(CC2CC(=O)C(c3c(C)cc(C)cc3C)=C2OC(=O)C(C)(C)C)CC1` (stereo not drawn) [Compound B4], the pest or weed control at 250 g/ha in the assay with Lolium perenne (LOLPE) [1] worked out at 90%; in assay [2], 60%; in assay [3], 70%; in the assay on Avena fatua (AVEFA) [4], 80%.
As for `Cc1cc(C)cc(CC2CC(OC(=O)C(C)(C)C)=C(c3c(C)cc(C)cc3C)C2=O)c1` (stereo not drawn) [Compound B16], the pest or weed control at 250 g/ha with Lolium perenne (LOLPE) [1] was 40%; in assay [2] it was 30%; in assay [3], 50%; with Avena fatua (AVEFA) [4], 10%; with Lolium perenne (LOLPE) [5] it was 80%; in assay [6], 40%. Further, the figures for the pest or weed control at 250 g/ha (in assay [7]; with Avena fatua (AVEFA) [8]) were 50% and 10%, respectively.

The record behind these values is patent publication US8791303B2, “Herbicides” (Syngenta Limited, priority 2009, dated 2014).
